In general, Ki refers to a measure of affinity in units of concentration, obtained from inhibition or displacement. A lower Ki goes with tighter binding.

The assay addresses Prothrombin/thrombin (Homo sapiens) (UniProt P00734). Kind of assay: Inhibition of amidolytic activity of thrombin.
Consider `N=C(N)c1ccc(CNC(=O)[C@@H]2CC[C@H]3CN(S(=O)(=O)CC(c4ccccc4)c4ccccc4)CC(=O)N32)cc1` [(6S,8aS)-2-(2,2-Diphenyl-ethanesulfonyl)-4-oxo-octahydro-pyrrolo[1,2-a]pyrazine-6-carboxylic acid 4-carbamimidoyl-benzylamide], for which the inhibition constant (Ki) worked out at 1 nM.
Then `N=C(NO)N1CCC(CNC(=O)[C@@H]2CC[C@H]3CN(S(=O)(=O)C(c4ccccc4)c4ccccc4)CC(=O)N32)CC1` [(6S,8aS)-2-(Diphenyl-methanesulfonyl)-4-oxo-octahydro-pyrrolo[1,2-a]pyrazine-6-carboxylic acid [1-(N-hydroxycarbamimidoyl)-piperidin-4-ylmethyl]-amide], with 2 nM.
Next, `Cc1cc(C(=N)N)ccc1CNC(=O)[C@@H]1CC[C@H]2CN(S(=O)(=O)C(c3ccccc3)c3ccccc3)CC(=O)N21` [(6S,8aS)-2-(Diphenyl-methanesulfonyl)-4-oxo-octahydro-pyrrolo[1,2-a]pyrazine-6-carboxylic acid 4-carbamimidoyl-2-methyl-benzylamide]: 2 nM; `N[C@H]1CC[C@H](CNC(=O)[C@@H]2CC[C@H]3CN(S(=O)(=O)CC(c4ccccc4)c4ccccc4)CC(=O)N32)CC1` [(6S,8aS)-2-(2,2-Diphenyl-ethanesulfonyl)-4-oxo-octahydro-pyrrolo[1,2-a]pyrazine-6-carboxylic acid (4-amino-cyclohexylmethyl)-amide]: 5 nM; `Nc1ccc(CNC(=O)[C@@H]2CC[C@H]3CN(S(=O)(=O)CC(c4ccccc4)c4ccccc4)CC(=O)N32)cn1` [(6S,8aS)-2-(2,2-Diphenyl-ethanesulfonyl)-4-oxo-octahydro-pyrrolo[1,2-a]pyrazine-6-carboxylic acid (6-amino-pyridin-3-ylmethyl)-amide]: 35 nM.
Regarding `N=C(N)c1ccc(CNC(=O)[C@@H]2CC[C@H]3CN(S(=O)(=O)C(c4ccccc4)c4ccccc4)CC(=O)N32)cc1` [(6S,8aS)-2-(Diphenyl-methanesulfonyl)-4-oxo-octahydro-pyrrolo[1,2-a]pyrazine-6-carboxylic acid 4-carbamimidoyl-benzylamide], affinity was put at a Ki of 1 nM.
As for `N=C(N)N1CCC(CNC(=O)[C@@H]2CC[C@H]3CN(S(=O)(=O)CC(c4ccccc4)c4ccccc4)CC(=O)N32)CC1` [(6S,8aS)-2-(2,2-Diphenyl-ethanesulfonyl)-4-oxo-octahydro-pyrrolo[1,2-a]pyrazine-6-carboxylic acid (1-carbamimidoyl-piperidin-4-ylmethyl)-amide], the Ki came to 8 nM. Compared with the last compound, the Ki is about 8-fold higher.
Then `Cc1nc(N)ccc1CNC(=O)[C@@H]1CC[C@H]2CN(S(=O)(=O)C(c3ccccc3)c3ccccc3)CC(=O)N21` [(6S,8aS)-2-(Diphenyl-methanesulfonyl)-4-oxo-octahydro-pyrrolo[1,2-a]pyrazine-6-carboxylic acid (6-amino-2-methyl-pyridin-3-ylmethyl)-amide], with 10 nM; and `N[C@H]1CC[C@H](CNC(=O)[C@@H]2CC[C@H]3CN(S(=O)(=O)C(c4ccccc4)c4ccccc4)CC(=O)N32)CC1` [(6S,8aS)-2-(Diphenyl-methanesulfonyl)-4-oxo-octahydro-pyrrolo[1,2-a]pyrazine-6-carboxylic acid (4-amino-cyclohexylmethyl)-amide], with 5 nM; and `Cc1nc(N)ccc1CNC(=O)[C@@H]1CC[C@H]2CN(S(=O)(=O)CC(c3ccccc3)c3ccccc3)CC(=O)N21` [(6S,8aS)-2-(2,2-Diphenyl-ethanesulfonyl)-4-oxo-octahydro-pyrrolo[1,2-a]pyrazine-6-carboxylic acid (6-amino-2-methyl-pyridin-3-ylmethyl)-amide], with 48 nM.
Turning to `O=C(NCc1ccc2nc[nH]c2c1)[C@@H]1CC[C@H]2CN(S(=O)(=O)C(c3ccccc3)c3ccccc3)CC(=O)N21` [(6S,8aS)-2-(Diphenyl-methanesulfonyl)-4-oxo-octahydro-pyrrolo[1,2-a]pyrazine-6-carboxylic acid (1H-benzoimidazol-5-ylmethyl)-amide], the Ki came to 75 nM. This Ki is about 1.6-fold higher than that of the compound before.
Then `Nc1ncc(CCNC(=O)[C@@H]2CC[C@H]3CN(S(=O)(=O)C(c4ccccc4)c4ccccc4)CC(=O)N32)[nH]1` [(6S,8aS)-2-(Diphenyl-methanesulfonyl)-4-oxo-octahydro-pyrrolo[1,2-a]pyrazine-6-carboxylic acid [2-(2-amino-1H-imidazol-4-yl)-ethyl]-amide], with 135 nM; and `N=C(N)N1CCC(CNC(=O)[C@@H]2CC[C@H]3CN(S(=O)(=O)C(c4ccccc4)c4ccccc4)CC(=O)N32)CC1` [(6S,8aS)-2-(Diphenyl-methanesulfonyl)-4-oxo-octahydro-pyrrolo[1,2-a]pyrazine-6-carboxylic acid (1-carbamimidoyl-piperidin-4-ylmethyl)-amide], with 9 nM.
Next, `N=C(N)[C@H]1CC[C@H](CNC(=O)[C@@H]2CC[C@H]3CN(S(=O)(=O)C(c4ccccc4)c4ccccc4)CC(=O)N32)CC1` [(6S,8aS)-2-(Diphenyl-methanesulfonyl)-4-oxo-octahydro-pyrrolo[1,2-a]pyrazine-6-carboxylic acid (4-carbamimidoyl-cyclohexylmethyl)-amide]: 2 nM; `N=C(NO)N1CCC(CNC(=O)[C@@H]2CC[C@H]3CN(S(=O)(=O)CC(c4ccccc4)c4ccccc4)CC(=O)N32)CC1` [(6S,8aS)-2-(2,2-Diphenyl-ethanesulfonyl)-4-oxo-octahydro-pyrrolo[1,2-a]pyrazine-6-carboxylic acid [1-(N-hydroxycarbamimidoyl)-piperidin-4-ylmethyl]-amide]: 2 nM.
`N=C(N)N1CCC(CNC(=O)[C@@H]2CC[C@H]3CN(C(=O)CCc4ccccc4)CC(=O)N32)CC1` [(6S,8aS)-4-Oxo-2-(3-phenyl-propionyl)-octahydro-pyrrolo[1,2-a]pyrazine-6-carboxylic acid (1-carbamimidoyl-piperidin-4-ylmethyl)-amide] came in with a Ki of 180 nM.
Then `N=C(NO)N1CCC(CNC(=O)[C@@H]2CC[C@H]3CN(S(=O)(=O)CCc4ccccc4)CC(=O)N32)CC1` [(6S,8aS)-4-Oxo-2-(2-phenyl-ethanesulfonyl)-octahydro-pyrrolo[1,2-a]pyrazine-6-carboxylic acid [1-(N-hydroxycarbamimidoyl)-piperidin-4-ylmethyl]-amide], with 14 nM; and `N=C(N)c1ccc2c(c1)CCC2NC(=O)[C@@H]1CC[C@H]2CN(S(=O)(=O)C(c3ccccc3)c3ccccc3)CC(=O)N21` (stereo partly drawn) [(6S,8aS)-2-(Diphenyl-methanesulfonyl)-4-oxo-octahydro-pyrrolo[1,2-a]pyrazine-6-carboxylic acid (5-carbamimidoyl-indan-1-yl)-amide], with 75 nM; and `N=C(NO)N1CCC(CNC(=O)[C@@H]2CC[C@H]3CN(C(=O)CC(c4ccccc4)c4ccccc4)CC(=O)N32)CC1` [(6S,8aS)-2-(3,3-Diphenyl-propionyl)-4-oxo-octahydro-pyrrolo[1,2-a]pyrazine-6-carboxylic acid [1-(N-hydroxycarbamimidoyl)-piperidin-4-ylmethyl]-amide], with 25 nM.

For the origin of these results see BindingDB's records for doi:10.1016/s0960-894x(02)00131-2 (Shire Biochem, 2002).
